“Also recorded” adds a separate entry of the source. Values belong to the compound of their own block, whether it stands above or below them.
Columns and labels:
[1] = target: T1, integrin GPIIb/IIIa (Homo sapiens, UniProt P05106+P08514); experiment: Inhibition by elarofiban of platelet aggregation induced by collagen or CRP trimer SEQ ID 25; assay type: cell-based
T1 construct: Washed platelets were incubated with various elarofiban doses; host or cells: washed human platelets from PRP of healthy volunteers

[2] = system: human platelets; experiment: Human platelet aggregation assay (washed platelets, optical density 650 nm); assay type: cell-based; conditions: for EC50 ± SEM, platelet aggregation: Table 3
Protocol: Human platelet-rich plasma (PRP) concentrate from healthy volunteers was purchased from Biological Specialties, Inc. (Colmar, Pa.). […] The PRP was centrifuged at 730 g for 15 min. The resulting platelet pellet was washed twice in CGS buffer (13 mM sodium citrate, 30 mM glucose, 120 mM NaCl, pH 6.5) containing 1 U/mL apyrase (grade V, Sigma-Aldrich) and resuspended in Tyrode's buffer (140 mM NaCl, 2.7 mM KCl, 12 mM NaHCO3, 0.76 mM Na2HPO4, 5.5 mM dextrose, 5.0 mM Hepes, 0.2% BSA, pH 7.4). The “washed” platelets were diluted to 3×10^8 platelets/mL and kept >45 min at 37° C. before use.
For the assay, 105 μL of washed platelets, 2 mM CaCl2 and […] of fibrinogen were added to a 96-well microtiter plate. Platelet aggregation was initiated by the addition of serial concentrations of native collagen fibrils (equine type I; 92% identity with human collagen sequence; Chrono-log Corp., Havertown, Pa.) or test peptides. Buffer was added to one set of control wells. The assay plate was stirred constantly and intermittently placed in a microplate reader (Softmax, Molecular Devices, Menlo Park, Calif.) to read optical density (650 nm) at 0 and 5 min after the addition of the compound solutions. Aggregation was calculated as the decrease in optical density between the time-0 and 5-min measurements and expressed as percent of aggregation.
Peptides were dissolved in PBS (pH 7) or water (final pH 5) to a concentration of 2 mg/mL. Some samples were heated in a water bath (70° C.) for 10 min, filtered through a 0.45-μm filter and incubated for 24 h or 7 days at 4° C.

T1 sequence (P08514 32-887 limits assumed): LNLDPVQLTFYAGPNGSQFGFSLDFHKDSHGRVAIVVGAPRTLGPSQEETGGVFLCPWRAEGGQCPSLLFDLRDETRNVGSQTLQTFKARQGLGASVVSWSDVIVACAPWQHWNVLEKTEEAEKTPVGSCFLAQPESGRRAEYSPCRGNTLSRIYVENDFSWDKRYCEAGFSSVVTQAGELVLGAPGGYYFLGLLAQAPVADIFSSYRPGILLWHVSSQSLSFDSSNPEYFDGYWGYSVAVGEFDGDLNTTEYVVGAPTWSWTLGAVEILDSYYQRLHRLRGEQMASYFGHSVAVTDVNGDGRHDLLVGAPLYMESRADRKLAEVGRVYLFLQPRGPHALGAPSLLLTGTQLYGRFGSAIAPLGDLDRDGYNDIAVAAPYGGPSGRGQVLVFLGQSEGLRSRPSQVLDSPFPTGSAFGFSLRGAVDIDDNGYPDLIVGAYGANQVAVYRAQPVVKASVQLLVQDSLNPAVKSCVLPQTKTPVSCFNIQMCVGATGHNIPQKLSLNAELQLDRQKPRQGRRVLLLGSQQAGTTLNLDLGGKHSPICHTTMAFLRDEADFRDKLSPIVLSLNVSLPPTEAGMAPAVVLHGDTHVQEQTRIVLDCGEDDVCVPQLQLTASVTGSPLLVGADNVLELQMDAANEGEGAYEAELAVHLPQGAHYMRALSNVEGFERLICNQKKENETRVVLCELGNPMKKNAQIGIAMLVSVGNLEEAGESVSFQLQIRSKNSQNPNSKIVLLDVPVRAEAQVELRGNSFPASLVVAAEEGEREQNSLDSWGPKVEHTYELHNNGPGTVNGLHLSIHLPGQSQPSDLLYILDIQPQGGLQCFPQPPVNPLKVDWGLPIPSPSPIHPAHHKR
T1 sequence (P08514 891-1039 partner limits assumed): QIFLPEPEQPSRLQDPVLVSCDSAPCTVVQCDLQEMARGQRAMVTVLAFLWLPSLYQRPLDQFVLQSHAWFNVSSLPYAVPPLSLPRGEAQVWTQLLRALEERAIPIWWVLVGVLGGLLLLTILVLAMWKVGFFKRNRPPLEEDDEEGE
T1 sequence (P05106 27-788): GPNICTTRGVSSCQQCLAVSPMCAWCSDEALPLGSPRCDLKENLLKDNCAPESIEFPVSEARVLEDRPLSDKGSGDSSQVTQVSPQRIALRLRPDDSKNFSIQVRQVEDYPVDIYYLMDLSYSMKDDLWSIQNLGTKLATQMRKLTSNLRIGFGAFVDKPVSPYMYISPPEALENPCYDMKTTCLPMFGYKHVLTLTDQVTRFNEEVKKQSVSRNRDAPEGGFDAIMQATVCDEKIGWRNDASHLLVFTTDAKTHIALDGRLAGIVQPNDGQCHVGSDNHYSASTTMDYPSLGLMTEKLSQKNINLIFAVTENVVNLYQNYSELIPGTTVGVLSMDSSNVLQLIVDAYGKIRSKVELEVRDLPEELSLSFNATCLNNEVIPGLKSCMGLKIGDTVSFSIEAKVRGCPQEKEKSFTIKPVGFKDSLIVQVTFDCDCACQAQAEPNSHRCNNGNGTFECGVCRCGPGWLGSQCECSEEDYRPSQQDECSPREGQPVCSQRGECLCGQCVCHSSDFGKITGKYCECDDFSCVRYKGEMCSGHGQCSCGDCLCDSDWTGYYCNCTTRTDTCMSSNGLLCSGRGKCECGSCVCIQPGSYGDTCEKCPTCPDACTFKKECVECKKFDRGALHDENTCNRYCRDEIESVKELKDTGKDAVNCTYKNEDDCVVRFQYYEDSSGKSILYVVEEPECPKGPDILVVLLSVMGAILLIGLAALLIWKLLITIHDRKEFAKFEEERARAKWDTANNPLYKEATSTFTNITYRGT

Inhibition of platelet aggregation induced by the CRP trimer having SEQ ID 25 ([1]; washed platelets incubated with 10, 100 and 1000 nM for 5 min before SEQ ID 25): dose-dependent inhibition | Inhibition of platelet aggregation induced by collagen ([1]; washed platelets incubated with 10, 100 and 1000 nM for 5 min before collagen): dose-dependent inhibition
Compound: O=C(O)C[C@H](NC(=O)[C@@H]1CCCN(C(=O)CCC2CCNCC2)C1)c1cccnc1 [elarofiban]

Compound: (Pro-Hyp-Gly)10 [SEQ ID 34]
Stimulation of platelet aggregation (in words) ([2]; Example 6, FIG. 1): not effective | EC50 ± SEM, platelet aggregation ([2]; peptide in PBS, H + F, pH 7, incubation 24 h): failed to aggregate platelets; also recorded: Not Active

EC50 values (±SEM), platelet aggregation ([2]; Example 6, FIG. 1, Table 4): 0.56 ± 0.09 µg/mL | EC50 ± SEM, platelet aggregation ([2]; native collagen fibrils (equine type I), no preparation conditions given): 0.25 µg/mL
Compound: Collagen
